Results on three compounds are retold here after patent US7566717B2, “Substituted heterocyclic compounds” (Gilead Sciences, Inc., priority 2003, dated 2009).

In general, Inhibition refers to the share of the control response that was lost under treatment.

This assay has as its system Rat heart mitochondria (palmitoyl CoA oxidation). In words: Mitochondrial assay: palmitoyl CoA oxidation. It is filed as biochemical. Particulars: at 100 μM of test compound, 1-C14 palmitoyl CoA oxidation, 15 min at 30° C. As to the method: Rat heart mitochondria were isolated by the method of Nedergard and Cannon (Methods in Enzymol. 55, 3, 1979).
Palmitoyl CoA oxidation—The Palmityl CoA oxidation was carried out in a total volume of 100 micro liters containing the following agents: 110 mM KCl, 33 mM Tris buffer at pH 8, 2 mM KPi, 2 mM MgCl2, 0.1 mM EDTA, 14.7 microM defatted BSA, 0.5 mM malic acid, 13 mM carnitine, 1 mM ADP, 52 micrograms of mitochondrial protein, and 16 microM 1-C14 palmitoyl CoA (Sp. Activity 60 mCi/mmole; 20 microCi/ml, using 5 microliters per assay). The compounds of this invention were added in a DMSO solution at the following concentrations: 100 micro molar, 30 micro molar, and 3 micro molar. In each assay, a DMSO control was used. After 15 min at 30° C., the enzymatic reaction was centrifuged (20,000 g for 1 min), and 70 microliters of the supernatant was added to an activated reverse phase silicic acid column (approximately 0.5 ml of silicic acid). The column was eluted with 2 ml of water, and 0.5 ml of the eluent was used for scintillation counting to determine the amount of C^14 trapped as C^14 bicarbonate ion.
With `Cc1cccc(C)c1NC(=O)CN1CCN(CC(O)CC(=O)Nc2ccccc2F)CC1` (stereo not drawn) [4-(4-{[N-(2,6-dimethylphenyl)carbamoyl]methyl}piperazinyl)-3-hydroxy-N-(2-fluorophenyl)butanamide], the Inhibition worked out at 36%.

The compound `Cc1cccc(C)c1NC(=O)CN1CCN(CC(O)CNC(=O)c2ccccc2F)CC1` (stereo not drawn) [N-(2,6-dimethylphenyl)-2-(4-{3-[(2-fluorophenyl)carbonylamino]-2-hydroxypropyl}piperazinyl)acetamide] registered an Inhibition of 24%.

With `Cc1cccc(C)c1NC(=O)CN1CCN(CC(O)CC2CCCCC2)CC1` (stereo not drawn) [N-(2,6-dimethylphenyl)-2-[4-(3-cyclohexyl-2-hydroxypropyl)piperazinyl]acetamide], the Inhibition turned out to be 8%.
